Measurements as given in PubChem BioAssay AID1259407 (Chemical Carcinogenesis Research Information System (CCRIS), 2018).
Calls of active or inactive are those of the source. How the calls were made is not given here.

Test system: CCRIS mutagenicity, Ames/micronucleus/aberration tests
Experiment: CCRIS mutagenicity studies
[1] = Test System: AMES SALMONELLA TYPHIMURIUM, Strain/Indicator: TA98, Metabolic Activation: NONE, Method: STANDARD PLATE
[2] = Test System: AMES SALMONELLA TYPHIMURIUM, Strain/Indicator: TA100, Metabolic Activation: NONE, Method: STANDARD PLATE
[3] = Test System: AMES SALMONELLA TYPHIMURIUM, Strain/Indicator: TA100, Metabolic Activation: RAT, LIVER, S-9, AROCLOR 1254, Method: STANDARD PLATE
[4] = Test System: AMES SALMONELLA TYPHIMURIUM, Strain/Indicator: TA1535, Metabolic Activation: NONE, Method: STANDARD PLATE
[5] = Test System: AMES SALMONELLA TYPHIMURIUM, Strain/Indicator: TA1537, Metabolic Activation: NONE, Method: STANDARD PLATE
[6] = Test System: AMES SALMONELLA TYPHIMURIUM, Strain/Indicator: TA1538, Metabolic Activation: NONE, Method: STANDARD PLATE

SMILES: C=CCc1ccc(O)c(OC)c1
- mutagenic call (End Point: IN VITRO CHROMOSOMAL ABERRATIONS, Test System: CHINESE HAMSTER OVARY CELLS, Metabolic Activation: NONE): inactive; negative
- mutagenic call (End Point: IN VITRO CHROMOSOMAL ABERRATIONS, Test System: CHINESE HAMSTER OVARY CELLS, Metabolic Activation: RAT, LIVER, S-9, AROCLOR 1254): active; positive
- mutagenic call (End Point: IN VITRO CHROMOSOMAL ABERRATIONS, Test System: CHO-WBL CELLS, Metabolic Activation: RAT, LIVER, S-9, PHENOBARBITAL AND BETA-NAPHTHOFLAVONE): active; positive (at 24 hr)
- mutagenic call (End Point: IN VITRO CHROMOSOMAL ABERRATIONS, Test System: SYRIAN HAMSTER EMBRYO (SHE) CELLS, Metabolic Activation: NONE): active; positive (structural changes)
- mutagenic call (End Point: IN VITRO CHROMOSOMAL ABERRATIONS, Test System: SYRIAN HAMSTER EMBRYO (SHE) CELLS, Metabolic Activation: RAT, LIVER, S-9): active; positive (structural changes)
- mutagenic call (End Point: IN VIVO MICRONUCLEUS, Test System: BONE MARROW POLYCHROMATIC ERYTHROCYTES, Species: MOUSE, Strain/Sex: DDY/MALE, Route: IP): inactive; negative
- mutagenic call (Test System: AMES SALMONELLA TYPHIMURIUM, Strain/Indicator: TA97, Metabolic Activation: NONE, Method: PREINCUBATION (120 MIN)): inactive; negative
- mutagenic call (Test System: AMES SALMONELLA TYPHIMURIUM, Strain/Indicator: TA97, Metabolic Activation: S-9, Method: PREINCUBATION (120 MIN)): inactive; negative
- mutagenic call (Test System: AMES SALMONELLA TYPHIMURIUM, Strain/Indicator: TA98, Metabolic Activation: HAMSTER, LIVER, S-9, AROCLOR 1254, Method: PREINCUBATION): inactive; negative
- mutagenic call (Test System: AMES SALMONELLA TYPHIMURIUM, Strain/Indicator: TA98, Metabolic Activation: NONE, Method: PREINCUBATION): inactive; negative
- mutagenic call (Test System: AMES SALMONELLA TYPHIMURIUM, Strain/Indicator: TA98, Metabolic Activation: NONE, Method: PREINCUBATION (120 MIN)): inactive; negative
- mutagenic call [1]: inactive; negative
- mutagenic call (Test System: AMES SALMONELLA TYPHIMURIUM, Strain/Indicator: TA98, Metabolic Activation: RAT, LIVER, S-9, AROCLOR 1254, Method: PREINCUBATION): inactive; negative
- mutagenic call (Test System: AMES SALMONELLA TYPHIMURIUM, Strain/Indicator: TA98, Metabolic Activation: RAT, LIVER, S-9, AROCLOR 1254, Method: STANDARD PLATE): inactive; negative
- mutagenic call (Test System: AMES SALMONELLA TYPHIMURIUM, Strain/Indicator: TA98, Metabolic Activation: S-9, Method: PREINCUBATION (120 MIN)): inactive; negative
- mutagenic call (Test System: AMES SALMONELLA TYPHIMURIUM, Strain/Indicator: TA98, Metabolic Activation: S-9, Method: STANDARD PLATE): inactive; negative
- mutagenic call (Test System: AMES SALMONELLA TYPHIMURIUM, Strain/Indicator: TA100, Metabolic Activation: HAMSTER, LIVER, S-9, AROCLOR 1254, Method: PREINCUBATION): inactive; negative
- mutagenic call (Test System: AMES SALMONELLA TYPHIMURIUM, Strain/Indicator: TA100, Metabolic Activation: NONE, Method: PREINCUBATION): inactive; negative
- mutagenic call (Test System: AMES SALMONELLA TYPHIMURIUM, Strain/Indicator: TA100, Metabolic Activation: NONE, Method: PREINCUBATION (120 MIN)): inactive; negative
- mutagenic call [2]: inactive; negative
- mutagenic call (Test System: AMES SALMONELLA TYPHIMURIUM, Strain/Indicator: TA100, Metabolic Activation: RAT, LIVER, S-9, AROCLOR 1254, Method: PREINCUBATION): inactive; negative
- mutagenic call [3]: inactive; negative
- mutagenic call (Test System: AMES SALMONELLA TYPHIMURIUM, Strain/Indicator: TA100, Metabolic Activation: S-9, Method: PREINCUBATION (120 MIN)): inactive; negative
- mutagenic call (Test System: AMES SALMONELLA TYPHIMURIUM, Strain/Indicator: TA100, Metabolic Activation: S-9, Method: STANDARD PLATE): inactive; negative
- mutagenic call (Test System: AMES SALMONELLA TYPHIMURIUM, Strain/Indicator: TA1535, Metabolic Activation: HAMSTER, LIVER, S-9, AROCLOR 1254, Method: PREINCUBATION): inactive; negative
- mutagenic call (Test System: AMES SALMONELLA TYPHIMURIUM, Strain/Indicator: TA1535, Metabolic Activation: NONE, Method: PREINCUBATION): inactive; negative
- mutagenic call [4]: inactive; negative
- mutagenic call (Test System: AMES SALMONELLA TYPHIMURIUM, Strain/Indicator: TA1535, Metabolic Activation: PAPS, Method: STANDARD PLATE): inactive; negative
- mutagenic call (Test System: AMES SALMONELLA TYPHIMURIUM, Strain/Indicator: TA1535, Metabolic Activation: RAT, LIVER, S-9, AROCLOR 1254, PAPS, Method: STANDARD PLATE): active; positive
- mutagenic call (Test System: AMES SALMONELLA TYPHIMURIUM, Strain/Indicator: TA1535, Metabolic Activation: RAT, LIVER, S-9, AROCLOR 1254, Method: PREINCUBATION): inactive; negative
- mutagenic call (Test System: AMES SALMONELLA TYPHIMURIUM, Strain/Indicator: TA1535, Metabolic Activation: RAT, LIVER, S-9, AROCLOR 1254, Method: STANDARD PLATE): inactive; negative
- mutagenic call (Test System: AMES SALMONELLA TYPHIMURIUM, Strain/Indicator: TA1537, Metabolic Activation: HAMSTER, LIVER, S-9, AROCLOR 1254, Method: PREINCUBATION): inactive; negative
- mutagenic call (Test System: AMES SALMONELLA TYPHIMURIUM, Strain/Indicator: TA1537, Metabolic Activation: NONE, Method: PREINCUBATION): inactive; negative
- mutagenic call [5]: inactive; negative
- mutagenic call (Test System: AMES SALMONELLA TYPHIMURIUM, Strain/Indicator: TA1537, Metabolic Activation: RAT, LIVER, S-9, AROCLOR 1254, Method: PREINCUBATION): inactive; negative
- mutagenic call (Test System: AMES SALMONELLA TYPHIMURIUM, Strain/Indicator: TA1537, Metabolic Activation: RAT, LIVER, S-9, AROCLOR 1254, Method: STANDARD PLATE): inactive; negative
- mutagenic call [6]: inactive; negative
- mutagenic call (Test System: AMES SALMONELLA TYPHIMURIUM, Strain/Indicator: TA1538, Metabolic Activation: RAT, LIVER, S-9, AROCLOR 1254, Method: STANDARD PLATE): inactive; negative
- mutagenic call (Test System: MOUSE LYMPHOMA, Strain/Indicator: L5178Y (TK+/TK-), Metabolic Activation: NONE, Method: MICROWELL): active; positive
- mutagenic call (Test System: MOUSE LYMPHOMA, Strain/Indicator: L5178Y (TK+/TK-), Metabolic Activation: S-9, Method: MICROWELL): active; positive

SMILES: CCCCC(CC)COC(=O)COc1ccc(Cl)cc1Cl (centres undefined)
- mutagenic call [1]: inactive; negative
- mutagenic call (Test System: AMES SALMONELLA TYPHIMURIUM, Strain/Indicator: TA98, Metabolic Activation: RAT LIVER S-9, AROCLOR 1254, 10%, Method: STANDARD PLATE): inactive; negative
- mutagenic call [2]: inactive; negative
- mutagenic call (Test System: AMES SALMONELLA TYPHIMURIUM, Strain/Indicator: TA100, Metabolic Activation: RAT LIVER S-9, AROCLOR 1254, 10%, Method: STANDARD PLATE): inactive; negative
- mutagenic call [4]: inactive; negative
- mutagenic call (Test System: AMES SALMONELLA TYPHIMURIUM, Strain/Indicator: TA1535, Metabolic Activation: RAT LIVER S-9, AROCLOR 1254, 10%, Method: STANDARD PLATE): inactive; negative
- mutagenic call [5]: inactive; negative
- mutagenic call (Test System: AMES SALMONELLA TYPHIMURIUM, Strain/Indicator: TA1537, Metabolic Activation: RAT LIVER S-9, AROCLOR 1254, 10%, Method: STANDARD PLATE): inactive; negative
- mutagenic call [6]: inactive; negative
- mutagenic call (Test System: AMES SALMONELLA TYPHIMURIUM, Strain/Indicator: TA1538, Metabolic Activation: RAT LIVER S-9, AROCLOR 1254, 10%, Method: STANDARD PLATE): inactive; negative
- mutagenic call (Test System: UDS RAT HEPATOCYTES, Strain/Indicator: THYMIDINE INCORPORATION, Metabolic Activation: NONE, Method: AUTORADIOGRAPHY): inactive; negative

SMILES: CC(C)N(CC(O)COc1cccc2ccccc12)N=O (centres undefined)
- mutagenic call (Test System: UDS HUMAN HEPATOCYTES, Strain/Indicator: THY INCORP, Metabolic Activation: NONE, Method: AUTORADIOGRAPHY): active; positive
- mutagenic call (Test System: UDS RAT HEPATOCYTES, Strain/Indicator: THY INCORP, Metabolic Activation: NONE, Method: AUTORADIOGRAPHY): active; positive

SMILES: Cc1ccc2nc3c(c(C)c2c1)[C@@H](O)[C@H](O)c1ccccc1-3
- mutagenic call [3]: inactive; negative
